Test results: ChEMBL document CHEMBL5728485, “Biaryloxy derivatives as TTX-S blockers” (2021)

Molecular target: Sodium channel protein type 9 subunit alpha (Homo sapiens, UniProt Q15858)
Test: EFS-FRET Assay: This screen is used to determine the effects of compounds on human Nav1.7 channels, utilizing electrical field stimulation (EFS) system in 96-well plate format on FDSS (Hamamatsu Photonics) platform. The changes of membrane potential are monitored with FRET dye pair, DiSBAC2(3) and PTS 18.

Chain of Sodium channel protein type 9 subunit alpha (Q15858 whole entry): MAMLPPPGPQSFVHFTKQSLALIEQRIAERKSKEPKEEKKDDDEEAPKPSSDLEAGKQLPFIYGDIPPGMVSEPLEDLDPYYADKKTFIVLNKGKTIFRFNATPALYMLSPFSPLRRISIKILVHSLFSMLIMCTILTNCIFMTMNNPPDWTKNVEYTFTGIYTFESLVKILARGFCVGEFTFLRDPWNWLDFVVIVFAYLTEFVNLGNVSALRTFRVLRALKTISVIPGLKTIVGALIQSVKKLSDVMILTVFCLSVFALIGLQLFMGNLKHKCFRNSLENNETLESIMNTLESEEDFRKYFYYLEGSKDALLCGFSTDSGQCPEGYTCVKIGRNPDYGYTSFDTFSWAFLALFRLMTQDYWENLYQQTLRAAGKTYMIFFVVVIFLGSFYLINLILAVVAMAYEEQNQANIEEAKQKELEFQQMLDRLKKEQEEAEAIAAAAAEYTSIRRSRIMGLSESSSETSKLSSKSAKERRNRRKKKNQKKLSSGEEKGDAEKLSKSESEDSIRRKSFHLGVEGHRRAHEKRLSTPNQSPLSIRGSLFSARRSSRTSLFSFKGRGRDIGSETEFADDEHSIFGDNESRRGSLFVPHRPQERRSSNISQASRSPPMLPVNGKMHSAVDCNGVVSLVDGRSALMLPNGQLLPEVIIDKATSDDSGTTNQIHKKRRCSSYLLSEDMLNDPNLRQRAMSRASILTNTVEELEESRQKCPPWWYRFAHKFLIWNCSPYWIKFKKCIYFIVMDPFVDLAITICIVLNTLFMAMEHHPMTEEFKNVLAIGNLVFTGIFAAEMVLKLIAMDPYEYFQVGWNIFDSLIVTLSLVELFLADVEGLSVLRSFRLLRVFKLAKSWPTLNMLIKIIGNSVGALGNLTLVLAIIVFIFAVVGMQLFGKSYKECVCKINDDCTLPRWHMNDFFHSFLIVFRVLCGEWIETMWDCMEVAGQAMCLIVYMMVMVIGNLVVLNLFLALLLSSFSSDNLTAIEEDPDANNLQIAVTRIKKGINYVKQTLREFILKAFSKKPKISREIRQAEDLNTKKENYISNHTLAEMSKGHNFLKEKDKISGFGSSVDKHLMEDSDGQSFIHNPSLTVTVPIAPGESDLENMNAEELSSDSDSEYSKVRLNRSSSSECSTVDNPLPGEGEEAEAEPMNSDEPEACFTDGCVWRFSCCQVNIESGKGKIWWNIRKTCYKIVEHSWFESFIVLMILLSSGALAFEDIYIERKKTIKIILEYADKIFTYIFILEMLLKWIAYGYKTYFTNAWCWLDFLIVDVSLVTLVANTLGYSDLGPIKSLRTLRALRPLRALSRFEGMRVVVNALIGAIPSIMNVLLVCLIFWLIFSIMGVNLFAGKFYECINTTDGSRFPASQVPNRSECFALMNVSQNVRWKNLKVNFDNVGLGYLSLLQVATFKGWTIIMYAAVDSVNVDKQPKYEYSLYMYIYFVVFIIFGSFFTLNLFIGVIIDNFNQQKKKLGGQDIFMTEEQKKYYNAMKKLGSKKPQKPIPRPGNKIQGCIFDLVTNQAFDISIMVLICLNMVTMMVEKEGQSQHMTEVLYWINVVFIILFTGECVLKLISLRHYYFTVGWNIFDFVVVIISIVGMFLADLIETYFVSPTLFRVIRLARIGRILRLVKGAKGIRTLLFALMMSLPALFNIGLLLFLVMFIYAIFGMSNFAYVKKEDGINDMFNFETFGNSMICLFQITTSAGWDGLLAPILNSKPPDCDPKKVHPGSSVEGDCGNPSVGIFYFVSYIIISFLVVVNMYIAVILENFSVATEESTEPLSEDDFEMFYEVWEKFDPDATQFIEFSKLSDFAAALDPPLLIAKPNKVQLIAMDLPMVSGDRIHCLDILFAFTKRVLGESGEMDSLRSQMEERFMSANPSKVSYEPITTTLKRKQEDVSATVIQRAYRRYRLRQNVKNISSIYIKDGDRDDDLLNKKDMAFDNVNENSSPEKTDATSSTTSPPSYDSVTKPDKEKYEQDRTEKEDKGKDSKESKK

| SMILES | IC50 [nM] |
| --- | --- |
| CS(=O)(=O)NC(=O)c1ccc(COc2ccc(F)c(-c3ccc(OCC4CC4)nc3)c2)cc1 | < 500 |
| Cc1cc(OCC2CCC2)cnc1-c1cccc(OCc2ccc(C(=O)NS(C)(=O)=O)cc2)c1 | < 500 |
| CS(=O)(=O)NC(=O)c1ccc(COc2cccc(-c3cnc(OCC4CCC4)cn3)c2)cc1 | < 500 |
| Cc1cc(OCC2CCC2)cnc1-c1cc(F)cc(OCc2ccc(C(=O)NS(C)(=O)=O)cc2)c1 | < 500 |
| Cc1c(OCC2CC2)ncnc1-c1cccc(OCc2ccc(C(=O)NS(C)(=O)=O)cc2F)c1 | < 500 |
| CS(=O)(=O)NC(=O)c1ccc(COc2cccc(-c3ncc(OCC4CC4)cc3Cl)c2)cc1 | < 500 |
| CS(=O)(=O)NC(=O)c1ccc(COc2cc(-c3ccc(OCC4CC4)nc3)ccc2Cl)cc1 | < 500 |
| CS(=O)(=O)NC(=O)c1ccc(COc2cc(F)cc(-c3cc(OCC4CC4)ccn3)c2)cc1 | < 500 |
| CS(=O)(=O)NC(=O)c1ccc(COc2cccc(-c3ccnc(OCC4CC4)c3)c2)cc1 | < 500 |
| Cc1nc(OCC2CCC2)ccc1-c1cc(F)cc(OCc2ccc(C(=O)NS(C)(=O)=O)cc2)c1 | < 500 |
| CS(=O)(=O)NC(=O)c1ccc(COc2cc(F)cc(-c3cnc(OCC4CCC4)c(CO)c3)c2)c(F)c1 | < 500 |
| CS(=O)(=O)NC(=O)c1ccc(COc2cc(F)cc(-c3cc(OCC4CC4)ncn3)c2)cc1 | < 500 |
| Cc1cc(-c2cccc(OCc3ccc(C(=O)NS(C)(=O)=O)cc3)c2)cnc1OCC1CC1 | < 500 |
| CN(C)C(=O)c1cc(OCC2CC2)cc(-c2cc(F)cc(OCc3ccc(C(=O)NS(C)(=O)=O)cc3F)c2)c1 | < 500 |
| O=C(NS(=O)(=O)C(F)(F)F)c1ccc(COc2cc(F)cc(-c3ccc(OCC4CC4)nc3)c2)cc1 | < 500 |
| Cn1cc(-c2cc(OCc3ccc(C(=O)NS(C)(=O)=O)cc3)cc(-c3ccc(OCC4CC4)nc3)c2)cn1 | < 500 |
| CS(=O)(=O)NC(=O)c1ccc(COc2cccc(-c3cccc(OCC4CC4)n3)c2)cc1 | < 500 |
| CS(=O)(=O)NC(=O)c1ccc(COc2cc(F)cc(-c3cc(OCC(N)=O)cc(OCC4CC4)c3)c2)c(F)c1 | < 500 |

| SMILES | IC50 [nM] |
| --- | --- |
| O=C(NS(=O)(=O)c1nccs1)c1ccc(COc2cccc(-c3ccc(OCC4CC4)nc3)c2)cc1 | < 500 |
| CS(=O)(=O)NC(=O)c1ccc(COc2cccc(-c3cncc(OCC4CC4)c3)c2)cc1 | < 500 |
| CS(=O)(=O)NC(=O)c1ccc(COc2cccc(-c3cnc(OCC4CCC4)c(CO)c3)c2)cc1 | < 500 |
| CS(=O)(=O)NC(=O)c1ccc(COc2cc(F)cc(-c3cnc(OCC4CC4)cn3)c2)cc1 | < 500 |
| Cc1cc(OCC2CC2)ncc1-c1cccc(OCc2ccc(C(=O)NS(C)(=O)=O)cc2)c1 | < 500 |
| CS(=O)(=O)NC(=O)c1ccc(COc2cc(-c3cccnc3)cc(-c3ccc(OCC4CC4)nc3)c2)cc1 | < 500 |
| CS(=O)(=O)NC(=O)c1ccc(COc2cccc(-c3cc(OCC4CC4)ncn3)c2)cc1 | < 500 |
| CS(=O)(=O)NC(=O)c1ccc(COc2ccc(F)c(-c3cccc(OCC4CC4)n3)c2)c(F)c1 | < 500 |
| CS(=O)(=O)NC(=O)c1ccc(COc2cc(-c3ccc(OCC4CC4)nc3)cc(C(F)(F)F)c2)cc1 | < 500 |
| Cc1c(OCC2CC2)ncnc1-c1cc(F)cc(OCc2ccc(C(=O)NS(C)(=O)=O)cc2)c1 | < 500 |
| CS(=O)(=O)NC(=O)c1ccc(COc2cc(F)cc(-c3cncc(OCC4CC4)c3)c2)cc1 | < 500 |
| CS(=O)(=O)NC(=O)c1ccc(COc2cc(F)cc(-c3cc(OCC4CC4)cc(C(=O)N4CCOCC4)c3)c2)c(F)c1 | < 500 |
| CN(CC1CC1)c1ncc(-c2cccc(OCc3ccc(C(=O)NS(C)(=O)=O)cc3F)c2)cn1 | < 500 |
| CN(CCO)Cc1cc(OCC2CC2)cc(-c2cc(F)cc(OCc3ccc(C(=O)NS(C)(=O)=O)cc3F)c2)c1 | < 500 |
| CS(=O)(=O)NC(=O)c1ccc(COc2cc(Br)cc(-c3ccc(OCC4CC4)nc3)c2)cc1 | < 500 |
| CS(=O)(=O)NC(=O)c1ccc(COc2cccc(-c3cccc(OCC4CC4)n3)c2)c(F)c1 | < 500 |
| CC(C)(C)OC(=O)N1CC(COc2ccc(-c3cccc(OCc4ccc(C(=O)NS(C)(=O)=O)cc4F)c3)cn2)C1 | < 500 |
| CS(=O)(=O)NC(=O)c1ccc(COc2cccc(-c3ccc(OCC4CC4)cc3)c2)cc1 | < 500 |

Other lines, results leading:

| IC50 [nM] | SMILES |
| --- | --- |
| < 500 | O=C(NS(=O)(=O)C1CC1)c1ccc(COc2cc(F)cc(-c3ccc(OCC4CC4)nc3)c2)cc1 |
| < 500 | O=C(NS(=O)(=O)c1nccs1)c1ccc(COc2cccc(-c3ccc(OCC4CC4)nc3)c2)c(F)c1 |
| < 500 | CS(=O)(=O)NC(=O)c1ccc(COc2ccc(Cl)c(-c3ccc(OCC4CC4)nc3)c2)c(F)c1 |
| < 500 | CC(C)S(=O)(=O)NC(=O)c1ccc(COc2cc(F)cc(-c3ccc(OCC4CC4)nc3)c2)cc1 |
| < 500 | O=C(NS(=O)(=O)C1CC1)c1ccc(COc2cc(F)cc(-c3ccc(OCC4CC4)nc3)c2)c(F)c1 |
| < 500 | CS(=O)(=O)NC(=O)c1ccc(COc2cccc(-c3ncc(OCC4CC4)cc3F)c2)c(F)c1 |
| < 500 | CS(=O)(=O)NC(=O)c1ccc(COc2cccc(-c3ccc(OCC4CCC(F)(F)CC4)nc3)c2)cc1 |
| < 500 | O=C(NS(=O)(=O)C1CC1)c1ccc(COc2cc(-c3ccc(OCC4CC4)nc3)ccn2)cc1 |
| < 500 | CS(=O)(=O)NC(=O)c1ccc(COc2cccc(-c3cnc(OCC4CCC4)cn3)c2)c(F)c1 |
| < 500 | CS(=O)(=O)NC(=O)c1ccc(COc2cccc(-c3ccc(OCC4CC4)nc3)c2)nc1 |
| < 500 | CS(=O)(=O)NC(=O)c1ccc(COc2cccc(-c3ccc(OCC4CCOCC4)nc3)c2)c(F)c1 |
| < 500 | CS(=O)(=O)NC(=O)c1ccc(COc2cccc(-c3cnc(OCC4CCC4)c(CO)c3)c2)c(F)c1 |
| < 500 | CS(=O)(=O)NC(=O)c1ccc(COc2ccc(F)c(-c3cnc(OCC4CC4)c(Cl)c3)c2)c(F)c1 |
| < 500 | CS(=O)(=O)NC(=O)c1ccc(COc2cccc(-c3ccc(OCC4CCC4)nc3)c2)nc1 |
| < 500 | Cc1ccc(OCc2ccc(C(=O)NS(=O)(=O)C3CC3)cc2F)cc1-c1ccc(OCC2CC2)nc1 |
| < 500 | CS(=O)(=O)NC(=O)c1ccc(COc2cccc(-c3ccc(OCC4CCCC4)nc3)c2)cc1 |
| < 500 | CS(=O)(=O)NC(=O)c1ccc(COc2cccc(-c3cc(OCC4CC4)ncn3)c2)c(F)c1 |
| < 500 | CS(=O)(=O)NC(=O)c1ccc(COc2cccc(-c3cnc(OCC4CC4)c(Cl)c3)c2)c(F)c1 |
| < 500 | CS(=O)(=O)NC(=O)c1ccc(COc2cccc(-c3ccc(OCC4CCOCC4)nc3)c2)cc1 |
| < 500 | CS(=O)(=O)NC(=O)c1ccc(COc2cccc(-c3ccc(OCC4CCOC4)nc3)c2)c(F)c1 (stereo not drawn) |
| < 500 | CS(=O)(=O)NC(=O)c1cc(F)c(COc2cccc(-c3ccc(OCC4CC4)nc3)c2)c(F)c1 |
| < 500 | CCS(=O)(=O)NC(=O)c1ccc(COc2cccc(-c3ccc(OCC4CC4)nc3)c2)c(F)c1 |
| < 500 | CCS(=O)(=O)NC(=O)c1ccc(COc2cc(F)cc(-c3ccc(OCC4CC4)nc3)c2)cc1 |
| < 500 | COc1cc(C(=O)NS(C)(=O)=O)ccc1COc1cccc(-c2ccc(OCC3CC3)nc2)c1 |
| < 500 | CS(=O)(=O)NC(=O)c1ccc(COc2cccc(-c3cncc(OCC4CC4)c3)c2)c(F)c1 |
| < 500 | O=C(NS(=O)(=O)C1CC1)c1cc(Cl)c(COc2cccc(-c3ccc(OCC4CC4)nc3)c2)cc1F |
| < 500 | CS(=O)(=O)NC(=O)c1ccc(COc2ccc(F)c(-c3ccc(OCC4CC4)nc3)c2)c(F)c1 |
